Reference: US6465429B1, “Antimicrobial cationic peptides” (priority 1995, dated 2002)
Ends that are not written are not given here.

Key:
[1] = α helical content by CD spectra; type: physicochemical
Description: The α helical content of the peptides were measured in buffer, liposomes and 20% Hexafluoroisopropanol (HFPIP). The liposomes constituted of POPC alone or POPC PC and 30% POPG (Table 7).

Red Blood Cells = assay: Red Blood Cell lysis; type: cell-based
E. coli ML 35 = assay: Inner membrane permeabilization (β-galactosidase, ONPG); type: cell-based; conditions: for Lag Time / Rate of Hydrolysis: inner membrane permeabilization; for Lag Time: E. coli ML 35; for Rate of Hydrolysis: E. coli ML 35, ONPG
Description: Inner membrane permeability was determined by measurement in E. coli ML 35 of β-galactosidase activity using ONPG as a substrate. Normally ONPG cannot pass across the cytoplasmic membrane to permit hydrolysis by the cytoplasmic enzyme β-galactosidase. However, cationic peptides, by permeabilizing the inner membrane, unmasks this enzyme leading to color development as ONP is released. […] Addition of citrate increased the lag time before the peptides were able to permeabilize the membranes. When the experiments were executed in cation adjusted media (CAMHB), the lag time was increased up to 30 minutes.

[2] = Dansyl polymyxin displacement assay; type: binding; conditions: Dansyl polymyxin displacement from LPS
Text: In addition, the peptides of SEQ ID NO: 5-8 also bound effectively to LPS with high affinity based on Dansyl polymyxin displacement assays (Table 5).

[3] = Synergy of MBI 26 with lysozyme and further antibiotics (reduction in MIC); type: cell-based; conditions: in combination with MBI 26 (1.25 μg/mL)
E. cloacae = assay: Synergy of peptide and antibiotic, MIC and FIC (checkerboard); type: cell-based; conditions: Enterobacter cloacae, agent alone
Description: (§1) FICs are performed by checkerboard titrations of peptides in one dimension of a microtiter plate, and of antibiotics in the other dimension, for example. The FIC is calculated by looking at the impact of one antibiotic on the MIC of the other and vice versa. […] Preferably, an FIC of less than 0.5 is obtained for synergism. As used herein, FIC can be determined as follows: [formula]
(§2) Synergism is identified as an FIC of about ≦0.5.

X. maltophila = assay: as above; type: cell-based; conditions: agent alone
Description: as §1, §2

A. calcoaceticus = assay: as above; type: cell-based; conditions: Acinetobacter calcoaceticus, agent alone
Description: as §1, §2

P. aeruginosa = assay: microbe, parasite or virus in culture; conditions: Pseudomonas aeruginosa, agent alone
Description: as §1, §2

Question: Which results are given for `CC[C@H](C)[C@H](NC(=O)[C@H](CC(C)C)NC(=O)[C@H](C)NC(=O)[C@@H]1CCCN1C(=O)[C@H](CC(C)C)NC(=O)CNC(=O)[C@@H](NC(=O)[C@@H](NC(=O)[C@H](CC(C)C)NC(=O)[C@@H](NC(=O)[C@H](CCCCN)NC(=O)[C@H](CCCCN)NC(=O)[C@@H](NC(=O)[C@H](C)NC(=O)[C@@H](NC(=O)[C@@H](NC(=O)[C@H](CC(C)C)NC(=O)[C@H](CCCCN)NC(=O)[C@H](CCCCN)NC(=O)[C@@H](NC(=O)[C@H](Cc1ccccc1)NC(=O)[C@H](CCC(=O)O)NC(=O)[C@H](CCCCN)NC(=O)[C@H](Cc1c[nH]c2ccccc12)NC(=O)[C@@H](N)CCCCN)[C@@H](C)CC)[C@@H](C)O)[C@@H](C)O)C(C)C)C(C)C)[C@@H](C)O)[C@@H](C)O)C(=O)N[C@@H](CO)C(=O)O` [compound 492]?
Answer: % α helicity ([1]; 20% HFIP): 43%; % α helicity ([1]; Buffer): 0%; % α helicity ([1]; POPC Liposomes): 42%; % α helicity ([1]; POPC/POPG Liposomes): 19%; RBC Lysis (Red Blood Cells): >55 µg/mL; Lag Time (E. coli ML 35): 68 s; Rate of Hydrolysis (E. coli ML 35): 0.23 ΔAU min^−1; Imax [2]: 48%

Question: Which results are given for “KWKSFIKNLEKVLKPGGLLSNIVTSL [compound 490]”?
Answer: % α helicity ([1]; 20% HFIP): 41%; % α helicity ([1]; Buffer): 0%; % α helicity ([1]; POPC Liposomes): 29%; % α helicity ([1]; POPC/POPG Liposomes): 27%; RBC Lysis (Red Blood Cells): >55 µg/mL; Lag Time (E. coli ML 35): 156 s; Rate of Hydrolysis (E. coli ML 35): 0.081 ΔAU min^−1; Imax [2]: 40%

Question: What does the source list for “KWKSFIKNLEKVLKKGPILANLVSIV [compound 491]”?
Answer: % α helicity ([1]; 20% HFIP): 44%; % α helicity ([1]; Buffer): 0%; % α helicity ([1]; POPC Liposomes): 0%; % α helicity ([1]; POPC/POPG Liposomes): 15%; RBC Lysis (Red Blood Cells): >55 µg/mL; Lag Time (E. coli ML 35): 152 s; Rate of Hydrolysis (E. coli ML 35): 0.14 ΔAU min^−1; Imax [2]: 24%

Question: Which “reduction in MIC” value [3] does the source give for `CO[C@@H]1[C@@H](OC(N)=O)[C@@H](O)[C@H](Oc2ccc3c(O)c(NC(=O)c4ccc(O)c(CC=C(C)C)c4)c(=O)oc3c2C)OC1(C)C` [Novobiocin] here?
Answer: > 4 ×

Question: With Lysozyme as the compound, how does the “reduction in MIC” value [3] read?
Answer: > 64 ×

Question: For “H-KWKSFIKKLTSAAKKVVTTAKPLISS-OH [MBI 26]”, which “RBC Lysis” value (Red Blood Cells) is on record?
Answer: >55 µg/mL

Question: And the “effect of 5 mM Mg++ on inner membrane permeabilization” value (E. coli ML 35; 4 ug peptide, +5 mM Mg)?
Answer: large inhibitory effect

Question: And the “effect of 100 mM NaCl on inner membrane permeabilization” value (E. coli ML 35; 4 ug peptide, +100 mM NaCl)?
Answer: little effect

Question: Which “reduction in MIC” value [3] does the source give for `CC1(C)S[C@@H]2[C@H](NC(=O)C(C(=O)O)c3ccccc3)C(=O)N2[C@H]1C(=O)O` (stereo partly shown) [carbenicillin] here?
Answer: 2 ×

Question: For “KWKKFIKELQKVLAPGGLLSNIVTSL [compound 493]”, which “% α helicity” value ([1]; 20% HFIP) is on record?
Answer: 42%

Question: What about the “% α helicity” value ([1]; Buffer) of the same compound?
Answer: 0%

Question: And the “% α helicity” value ([1]; POPC Liposomes)?
Answer: 18%

Question: And the “% α helicity” value ([1]; POPC/POPG Liposomes)?
Answer: 20%

Question: And the “RBC Lysis” value (Red Blood Cells)?
Answer: >55 µg/mL

Question: What about the “Lag Time” value (E. coli ML 35) of the same compound?
Answer: 136 s

Question: And the “Rate of Hydrolysis” value (E. coli ML 35)?
Answer: 0.14 ΔAU min^−1

Question: And the Imax [2]?
Answer: 56%

Question: For `CC(C)(O/N=C(\C(=O)N[C@@H]1C(=O)N2C(C(=O)[O-])=C(C[n+]3ccccc3)CS[C@H]12)c1csc(N)n1)C(=O)O` [Ceftazidime], which MIC (E. cloacae; E. cloacae isolate 12, strain ATCC 13047) is on record?
Answer: 4 µg/mL

Question: And the MIC (E. cloacae; E. cloacae isolate 13, strain 37-1)?
Answer: 2 µg/mL

Question: What about the MIC (E. cloacae; E. cloacae isolate 14, strain 938-2) of the same compound?
Answer: 2 µg/mL

Question: And the MIC (E. cloacae; E. cloacae isolate 15, strain B5546)?
Answer: 2 µg/mL

Question: What about the MIC (E. cloacae; E. cloacae isolate 16, strain R4148) of the same compound?
Answer: 512 µg/mL

Question: And the MIC (E. cloacae; E. cloacae isolate 17, strain R4148-2)?
Answer: 512 µg/mL

Question: And the MIC (E. cloacae; E. cloacae isolate 18, strain 3077)?
Answer: 2 µg/mL

Question: What about the MIC (E. cloacae; E. cloacae isolate 19, strain 3356) of the same compound?
Answer: 128 µg/mL

Question: What about the MIC (E. cloacae; E. cloacae isolate 20, strain 14269) of the same compound?
Answer: 512 µg/mL

Question: What about the MIC (E. cloacae; E. cloacae isolate 21, strain 14661) of the same compound?
Answer: 512 µg/mL

Question: What about the MIC (E. cloacae; E. cloacae isolate 22, strain 18801) of the same compound?
Answer: 2 µg/mL

Question: And the MIC (X. maltophila; X. maltophila isolate 34, strain ATCC 13637)?
Answer: 64 µg/mL

Question: And the MIC (X. maltophila; X. maltophila isolate 35, strain 6)?
Answer: 64 µg/mL

Question: And the MIC (X. maltophila; X. maltophila isolate 36, strain 16)?
Answer: 32 µg/mL

Question: What about the MIC (X. maltophila; X. maltophila isolate 37, strain 3095) of the same compound?
Answer: 512 µg/mL

Question: What about the MIC (X. maltophila; X. maltophila isolate 39, strain B3110.1) of the same compound?
Answer: 64 µg/mL

Question: And the MIC (X. maltophila; X. maltophila isolate 40, strain R1302-1)?
Answer: 16 µg/mL

Question: And the MIC (X. maltophila; X. maltophila isolate 41, strain R4230)?
Answer: 4 µg/mL

Question: And the MIC (X. maltophila; X. maltophila isolate 42, strain TF29-1)?
Answer: 4 µg/mL

Question: And the MIC (X. maltophila; X. maltophila isolate 43, strain TF29-2)?
Answer: 4 µg/mL

Question: And the MIC (X. maltophila; X. maltophila isolate 44, strain W6896-2)?
Answer: 64 µg/mL

Question: What about the MIC (A. calcoaceticus; A. calcoaceticus isolate 1, strain ATCC 23055) of the same compound?
Answer: 2 µg/mL

Question: What about the MIC (A. calcoaceticus; A. calcoaceticus isolate 4, strain 28) of the same compound?
Answer: 16 µg/mL

Question: What about the MIC (A. calcoaceticus; A. calcoaceticus isolate 5, strain 8220) of the same compound?
Answer: 16 µg/mL

Question: What about the MIC (A. calcoaceticus; A. calcoaceticus isolate 6, strain 8221) of the same compound?
Answer: 8 µg/mL

Question: And the MIC (A. calcoaceticus; A. calcoaceticus isolate 7, strain 8222)?
Answer: 16 µg/mL

Question: And the MIC (A. calcoaceticus; A. calcoaceticus isolate 8, strain 8223)?
Answer: 16 µg/mL

Question: What about the MIC (A. calcoaceticus; A. calcoaceticus isolate 9, strain 8224) of the same compound?
Answer: 64 µg/mL

Question: What about the MIC (A. calcoaceticus; A. calcoaceticus isolate 2, strain 23) of the same compound?
Answer: 128 µg/mL

Question: And the MIC (P. aeruginosa; P. aeruginosa isolate 23, strain ATCC 27853)?
Answer: 32 µg/mL

Question: What about the MIC (P. aeruginosa; P. aeruginosa isolate 24, strain 34) of the same compound?
Answer: 32 µg/mL

Question: What about the MIC (P. aeruginosa; P. aeruginosa isolate 25, strain 923-1) of the same compound?
Answer: 4 µg/mL

Question: What about the MIC (P. aeruginosa; P. aeruginosa isolate 26, strain 3101) of the same compound?
Answer: 8 µg/mL

Question: What about the MIC (P. aeruginosa; P. aeruginosa isolate 27, strain 14644) of the same compound?
Answer: 128 µg/mL

Question: What about the MIC (P. aeruginosa; P. aeruginosa isolate 28, strain 15036) of the same compound?
Answer: 2 µg/mL

Question: What about the MIC (P. aeruginosa; P. aeruginosa isolate 29, strain 15545) of the same compound?
Answer: 8 µg/mL

Question: What about the MIC (P. aeruginosa; P. aeruginosa isolate 30, strain B3999-1) of the same compound?
Answer: 16 µg/mL

Question: What about the MIC (P. aeruginosa; P. aeruginosa isolate 33, strain W5483-2) of the same compound?
Answer: 8 µg/mL
